Reference: US12023317B2, “Composition for ameliorating psoriasis comprising cimicifugolide a as active ingredient” (KOREA INSTITUTE OF SCIENCE AND TECHNOLOGY, priority 2021, dated 2024)

Tested on: psoriasis
Assay: psoriasis-induced group: skin moisture, damaged area, skin morphology, inflammation
Assay type: in vivo
Conditions: when cimicifugolide A is administered

**Q.** `CC(C)=CC1OC(=O)/C(=C\CO)C1O` (stereo not shown) [cimicifugolide A, (Z)-4-Hydroxy-3-(2-hydroxyethylidene)-5-(2-methylprop-1-en-1-yl)dihydrofuran-2(3H)-one] was tested. Which inflammation expression did it give?
**A.** inhibition

**Q.** What about the moisture content of the same compound?
**A.** increased

**Q.** And the moisture loss?
**A.** decreased

**Q.** And the skin morphological changes?
**A.** inhibition
